# The supplement of paper PMC10307832
# Compound: CC1=CC(=C(N1C2=CC=C(C=C2)Cl)C)C(=O)CN3CCCCC3 [IU1-47] + Cc1nc(Nc2ncc(C(=O)Nc3c(C)cccc3Cl)s2)cc(N2CCN(CCO)CC2)n1 [Dasatinib] (partner 0.075 µM)
# Assay: relative viability (nuclei count vs DMSO), 5 days (fraction); higher = more cells survive
# Settings: first compound 8 µM
# How it was run: (§1)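 Nuclei were stained with Hoechst during a one-step fixation (final 0.05% Triton X-100, 1% formaldehyde, 1 ug/ml Hoechst) carried out 5 days after dosing, then counted on 4× images. The cells, lung cancer lines in 1536-well plates, had been dosed by pin tool the day after seeding with one drug alone or a fixed anchor-drug dose plus five library-drug doses (not always all listed) in √10 steps. Relative viability is the nuclei count in treated wells divided by that in vehicle wells, and each value is the median of duplicate plates.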
row,Cell Line,relative viability
1,BEN,0.304
2,HCC-78,0.336
3,NCI-H1792,0.803
4,NCI-H1563,0.447

# Compound: CC1=CC(=C(N1C2=CC=C(C=C2)Cl)C)C(=O)CN3CCCCC3 [IU1-47] + CCNC(=O)c1noc(-c2cc(C(C)C)c(O)cc2O)c1-c1ccc(CN2CCOCC2)cc1 [Luminespib] (partner 0.01 µM)
# Assay: as above
# Settings: first compound 0.08 µM
# How it was run: as §1
row,Cell Line,relative viability
1,NCI-H522,1.32
2,NCI-H1623,0.602
3,NCI-H727,0.356
4,NCI-H1650,0.169
5,NCI-H1993,0.857
6,SW 1573,0.196
7,NCI-H838,0.31
8,LCLC-103H,1.11
9,NCI-H520,0.259
10,NCI-H2126,0.928
11,EMC-BAC-2,1.4
12,NCI-H2085,0.446
13,NCI-H1666,1.08
14,NCI-H596,0.926
15,LK-2,0.235
16,NCI-H2087,0.194

row,Cell Line,relative viability
1,NCI-H2342,0.698
2,SK-MES-1,0.965
3,H3255,1.09
4,COR-L23,0.836
5,COR-L 105,0.775
6,LOU-NH91,0.326
7,ChaGo-K-1,0.623
8,NCI-H2170,0.706
9,NCI-H2405,0.77
10,HOP-62,0.957
11,HCC-44,1.17
12,SW 900,0.191
13,LU99A,0.32
14,BEN,0.362
15,NCI-H1792,0.573
16,NCI-H1563,0.468

# Same assay, conditions: first compound 0.253 µM
row,Cell Line,relative viability
1,NCI-H522,1.27
2,NCI-H1623,0.611
3,NCI-H727,0.241
4,NCI-H1650,0.201
5,NCI-H1993,0.888
6,SW 1573,0.179
7,NCI-H838,0.347
8,LCLC-103H,0.982
9,NCI-H520,0.238
10,NCI-H2126,0.975
11,EMC-BAC-2,1.32
12,NCI-H2085,0.5
13,NCI-H1666,1.02
14,NCI-H596,1.05
15,LK-2,0.165
16,NCI-H2087,0.166

row,Cell Line,relative viability
1,NCI-H2342,0.679
2,SK-MES-1,0.891
3,H3255,1
4,COR-L23,0.85
5,COR-L 105,0.673
6,LOU-NH91,0.299
7,ChaGo-K-1,0.618
8,NCI-H2170,1.13
9,NCI-H2405,0.824
10,HOP-62,0.964
11,HCC-44,1.03
12,SW 900,0.172
13,LU99A,0.182
14,BEN,0.459
15,NCI-H1792,0.358
16,NCI-H1563,0.52

# Same assay, conditions: first compound 0.8 µM
row,Cell Line,relative viability
1,NCI-H522,1.35
2,NCI-H1623,0.519
3,NCI-H727,0.803
4,NCI-H1650,0.18
5,NCI-H1993,0.804
6,SW 1573,0.129
7,NCI-H838,0.262
8,LCLC-103H,1.03
9,NCI-H520,0.248
10,NCI-H2126,0.949
11,EMC-BAC-2,1.28
12,NCI-H2085,0.522
13,NCI-H1666,0.938
14,NCI-H596,1
15,LK-2,0.175
16,NCI-H2087,0.18

row,Cell Line,relative viability
1,NCI-H2342,0.775
2,SK-MES-1,0.87
3,H3255,0.757
4,COR-L23,0.71
5,COR-L 105,1
6,LOU-NH91,0.294
7,ChaGo-K-1,0.713
8,NCI-H2170,0.759
9,NCI-H2405,0.739
10,HOP-62,1.04
11,HCC-44,1.11
12,SW 900,0.181
13,LU99A,0.273
14,BEN,0.414
15,NCI-H1792,0.515
16,NCI-H1563,0.538

# Same assay, conditions: first compound 2.53 µM
row,Cell Line,relative viability
1,NCI-H522,0.864
2,NCI-H1623,0.456
3,NCI-H727,0.365
4,NCI-H1650,0.175
5,NCI-H1993,0.868
6,SW 1573,0.261
7,NCI-H838,0.243
8,LCLC-103H,0.818
9,NCI-H520,0.285
10,EMC-BAC-2,1.26
11,NCI-H2085,0.446
12,NCI-H1666,0.942
13,NCI-H596,1.12
14,LK-2,0.213
15,NCI-H2342,0.713
16,SK-MES-1,0.897
17,H3255,0.41
18,COR-L23,0.817
19,COR-L 105,0.809
20,LOU-NH91,0.276
21,ChaGo-K-1,0.671
22,NCI-H2170,0.66
23,NCI-H2405,0.694
24,HOP-62,0.925
25,HCC-44,0.987
26,SW 900,0.176
27,LU99A,0.302
28,NCI-H1792,0.308
29,NCI-H1563,0.506

# Same assay, conditions: first compound 8 µM
row,Cell Line,relative viability
1,NCI-H522,1.23
2,NCI-H1623,0.661
3,NCI-H727,0.293
4,NCI-H1650,0.221
5,NCI-H1993,0.716
6,SW 1573,0.23
7,NCI-H838,0.282
8,LCLC-103H,0.989
9,NCI-H520,0.248
10,NCI-H2126,0.899
11,EMC-BAC-2,0.93
12,NCI-H2085,0.318
13,NCI-H1666,0.854
14,NCI-H596,0.752
15,LK-2,0.17
16,NCI-H2087,0.163

row,Cell Line,relative viability
1,NCI-H2342,0.745
2,SK-MES-1,0.839
3,H3255,0.888
4,COR-L23,0.675
5,COR-L 105,0.696
6,LOU-NH91,0.336
7,ChaGo-K-1,0.703
8,NCI-H2170,0.994
9,NCI-H2405,0.804
10,HOP-62,1.06
11,HCC-44,1.21
12,SW 900,0.194
13,LU99A,0.259
14,BEN,0.344
15,NCI-H1792,0.568
16,NCI-H1563,0.497

# Compound: Cc1nc(C(=O)NCC(=O)O)c(O)c2ccc(Oc3ccccc3)cc12 [FG-4592] + Cc1cc(Nc2cc(N3CCN(C)CC3)nc(Sc3ccc(NC(=O)C4CC4)cc3)n2)n[nH]1 [Tozasertib] (partner 0.1 µM)
# Assay: as above
# Settings: first compound 0.08 µM
# How it was run: as §1
row,Cell Line,relative viability
1,NCI-H522,0.493
2,NCI-H1623,0.434
3,NCI-H727,0.608
4,NCI-H1650,0.409
5,NCI-H1993,0.613
6,SW 1573,0.205
7,NCI-H838,0.296
8,LCLC-103H,0.42
9,NCI-H2126,0.842
10,EMC-BAC-2,0.262
11,NCI-H2085,0.79
12,HCC-366,0.226
13,NCI-H1666,0.651
14,NCI-H596,0.975
15,LK-2,0.155
16,NCI-H2087,0.234

row,Cell Line,relative viability
1,NCI-H2342,0.493
2,SK-MES-1,0.862
3,H3255,0.718
4,COR-L23,0.186
5,COR-L 105,0.348
6,LOU-NH91,0.709
7,ChaGo-K-1,0.241
8,NCI-H2170,0.704
9,NCI-H2405,0.631
10,HOP-62,0.406
11,HCC-44,1.08
12,SW 900,0.575
13,LU99A,0.289
14,BEN,0.564
15,NCI-H1648,0.536
16,HCC-78,0.402

# Same assay, conditions: first compound 0.253 µM
row,Cell Line,relative viability
1,NCI-H522,0.625
2,NCI-H1623,0.422
3,NCI-H727,0.591
4,NCI-H1650,0.277
5,NCI-H1993,0.584
6,SW 1573,0.173
7,NCI-H838,0.246
8,LCLC-103H,0.529
9,NCI-H520,0.479
10,NCI-H2126,0.775
11,EMC-BAC-2,0.277
12,NCI-H2085,0.774
13,HCC-366,0.0945
14,NCI-H1666,0.592
15,NCI-H596,0.916
16,LK-2,0.17

row,Cell Line,relative viability
1,NCI-H2087,0.205
2,NCI-H2342,0.43
3,SK-MES-1,0.872
4,H3255,0.626
5,COR-L23,0.212
6,COR-L 105,0.375
7,LOU-NH91,0.669
8,ChaGo-K-1,0.219
9,NCI-H2170,0.622
10,HOP-62,0.393
11,HCC-44,0.84
12,SW 900,0.675
13,LU99A,0.293
14,BEN,0.459
15,NCI-H1648,0.527
16,HCC-78,0.481

# Same assay, conditions: first compound 0.8 µM
row,Cell Line,relative viability
1,NCI-H522,0.545
2,NCI-H1623,0.404
3,NCI-H727,0.757
4,NCI-H1650,0.427
5,NCI-H1993,0.604
6,SW 1573,0.207
7,NCI-H838,0.279
8,LCLC-103H,0.572
9,NCI-H2126,0.782
10,EMC-BAC-2,0.27
11,NCI-H2085,0.758
12,HCC-366,0.123
13,NCI-H1666,0.594
14,NCI-H596,0.867
15,NCI-H2087,0.279
16,NCI-H2342,0.442
17,SK-MES-1,0.961
18,H3255,0.608
19,COR-L23,0.217
20,COR-L 105,0.359
21,LOU-NH91,0.696
22,ChaGo-K-1,0.224
23,NCI-H2170,0.726
24,NCI-H2405,0.763
25,HOP-62,0.381
26,SW 900,0.527
27,LU99A,0.243
28,BEN,0.475
29,NCI-H1648,0.515
30,HCC-78,0.491

# Same assay, conditions: first compound 2.53 µM
row,Cell Line,relative viability
1,NCI-H522,0.539
2,NCI-H1623,0.45
3,NCI-H727,0.807
4,NCI-H1650,0.456
5,NCI-H1993,0.441
6,SW 1573,0.171
7,NCI-H838,0.242
8,LCLC-103H,0.557
9,NCI-H520,0.479
10,NCI-H2126,0.721
11,EMC-BAC-2,0.301
12,NCI-H2085,0.792
13,HCC-366,0.0834
14,NCI-H1666,0.657
15,NCI-H596,0.893
16,LK-2,0.175
17,NCI-H2087,0.175

row,Cell Line,relative viability
1,NCI-H2342,0.464
2,SK-MES-1,0.862
3,H3255,0.601
4,COR-L23,0.153
5,COR-L 105,0.297
6,LOU-NH91,0.634
7,ChaGo-K-1,0.237
8,NCI-H2170,0.777
9,NCI-H2405,0.735
10,HOP-62,0.367
11,HCC-44,0.783
12,SW 900,0.417
13,LU99A,0.334
14,BEN,0.676
15,NCI-H1648,0.47
16,HCC-78,0.486

# Same assay, conditions: first compound 8 µM
row,Cell Line,relative viability
1,NCI-H522,0.437
2,NCI-H1623,0.436
3,NCI-H727,0.678
4,NCI-H1650,0.406
5,NCI-H1993,0.548
6,SW 1573,0.198
7,NCI-H838,0.26
8,LCLC-103H,0.411
9,NCI-H520,0.391
10,NCI-H2126,0.575
11,EMC-BAC-2,0.286
12,NCI-H2085,0.933
13,HCC-366,0.0885
14,NCI-H1666,0.56
15,NCI-H596,0.682
16,LK-2,0.186
17,NCI-H2087,0.269

row,Cell Line,relative viability
1,NCI-H2342,0.421
2,SK-MES-1,0.832
3,H3255,0.642
4,COR-L23,0.171
5,COR-L 105,0.35
6,LOU-NH91,0.717
7,ChaGo-K-1,0.208
8,NCI-H2170,0.704
9,NCI-H2405,0.757
10,HOP-62,0.41
11,HCC-44,0.852
12,SW 900,0.531
13,LU99A,0.297
14,BEN,0.452
15,NCI-H1648,0.542
16,HCC-78,0.414
